IC50 data for four compounds are collected here from EP0639585A1, “Elastase inhibitor” (BANYU PHARMACEUTICAL CO., LTD., priority 1993, dated 1995).

The target of the assay is T1, human leukocyte elastase (Homo sapiens, UniProt P08246).
T1 sequence (P08246 30-267): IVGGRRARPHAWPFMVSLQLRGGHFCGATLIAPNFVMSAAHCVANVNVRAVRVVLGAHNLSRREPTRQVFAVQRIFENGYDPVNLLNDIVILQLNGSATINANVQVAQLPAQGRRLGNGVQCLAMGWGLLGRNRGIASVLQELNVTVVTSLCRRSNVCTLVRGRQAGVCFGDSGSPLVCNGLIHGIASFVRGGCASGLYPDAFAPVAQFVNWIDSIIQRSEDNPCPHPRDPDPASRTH
As to the kind of experiment: Elastase inhibition activity (fluorogenic substrate N-methoxy succinyl-L-alanyl-L-alanyl-L-prolyl-L-valine 4-methylcoumaryl-7-amide). Type of assay: biochemical. Particulars: 0.2M tris buffer pH8.5, 1M sodium chloride, 40µM substrate, 37° C, 20 minutes incubation; read-out: IC₅₀. Here is the method:
The inhibition activities to human leukocyte elastase were determined as follows: Each 1µl of DMSO solution of the compound and DMSO (for reference) were added to each 250µl of 0.2M tris buffer solutions (pH8.5) containing 40µM N-methoxy succinyl-L-alanyl-L-alanyl-L-prolyl-L-valine 4-methylcoumaryl-7-amide and 1M sodium chloride, and the mixtures were pre-incubated at 37° C for three minutes. Then 50µl of 0.2M tris buffer solutions (pH8.5) containing 0.2µg/ml human leukocyte elastase were added to the mixtures and the mixtures were incubated at 37° C for 20 minutes. Each 1ml of 2M acetic acid aqueous solutions were added to the mixture and the reactions were stopped and then fluorescences of the supernatants were measured and the activities were calculated. As the results, IC₅₀ values were as follows: the compound 6 = 0.78µM, the compound 4 = 6.32µM, the compound 1 = 8.48µM and the compound 5 = 9.94µM.
Regarding `CCC[C@H](NC(=O)[C@@H]1CCCN1C(=O)[C@H](CC(C)C)NC(C)=O)C(=O)C(=O)Cc1ccccc1` [Compound 1, (4S)-4-(N-acetyl-L-leucyl-L-prolyl)amino-1-phenyl-2,3-heptanedione], the IC50 amounted to 8.48 µM.
Take `CCC[C@H](NC(=O)[C@@H]1CCCN1C(=O)[C@H](CC(C)C)NC(=O)OCc1ccccc1)C(=O)C(=O)CC1CCCCC1` [Compound 4, (4S)-4-(N-benzyloxycarbonyl-L-leucyl-L-prolyl)amino-1-cyclohexyl-2,3-heptanedione]: the IC50 was determined as 6.32 µM.
Consider `CCC[C@H](NC(=O)[C@@H]1CCCN1C(=O)[C@H](CC(C)C)NC(=O)OCc1ccccc1)C(=O)C(=O)CCC1CCCCC1` [Compound 5, (5S)-5-(N-benzyloxycarbonyl-L-leucyl-L-prolyl)amino-1-cyclohexyl-3,4-octanedione], for which the IC50 was 9.94 µM.
Turning to `CCC[C@H](NC(=O)[C@@H]1CCCN1C(=O)[C@H](CC(C)C)NC(=O)OCc1ccccc1)C(=O)C(=O)Cc1ccccc1` [Compound 6, (4S)-4-(N-benzyloxycarbonyl-L-leucyl-L-prolyl)amino-1-phenyl-2,3-heptanedione], the IC50 worked out at 0.78 µM.
